Data reported in US10696615B2, “Prenylated hydroxystilbenes” (The University of Sydney, priority 2011, dated 2020).

Columns and labels:
MOLT-4 = test: NCI in vitro cancer screen, Leukemia; format: cell-based, human; conditions: MOLT-4; for GI50 / CC50: Homo sapiens; for CC50: read-out: LC50 (the source's name)
SR = test: NCI in vitro cancer screen, Leukemia; format: cell-based, human; conditions: for GI50 / CC50: Homo sapiens; for CC50: read-out: LC50 (the source's name)
HOP-92 = test: NCI in vitro cancer screen, Non-Small Cell Lung Cancer; format: cell-based, human; conditions: HOP-92; for GI50 / CC50: Homo sapiens; for CC50: read-out: LC50 (the source's name)
NCI-H226 = test: as above; format: cell-based, human; conditions: NCI-H226; for GI50 / LC50 (50% lethal concentration): Homo sapiens
NCI-H23 = test: as above; format: cell-based, human; conditions: NCI-H23; for GI50 / LC50: Homo sapiens
NCI-H460 = test: as above; format: cell-based, human; conditions: NCI-H460; for GI50 / CC50: Homo sapiens; for CC50: read-out: LC50 (the source's name)
NCI-H522 = test: as above; format: cell-based, human; conditions: NCI-H522; for GI50 / CC50: Homo sapiens; for CC50: read-out: LC50 (the source's name)
KM12 = test: NCI in vitro cancer screen, Colon Cancer; format: cell-based, human; conditions: KM12; for GI50 / CC50: Homo sapiens; for CC50: read-out: LC50 (the source's name)
SW-620 = test: NCI in vitro cancer screen, Colon Cancer; format: cell-based, human; conditions: SW-620; for GI50 / CC50: Homo sapiens; for CC50: read-out: LC50 (the source's name)
SF-295 = test: NCI in vitro cancer screen, CNS Cancer; format: cell-based, human; conditions: SF-295; for GI50 / CC50: Homo sapiens; for CC50: read-out: LC50 (the source's name)
SF-539 = test: NCI in vitro cancer screen, CNS Cancer; format: cell-based; conditions: SF-539; for GI50 / CC50: Homo sapiens; for CC50: read-out: LC50 (the source's name)
SNB-19 = test: NCI in vitro cancer screen, CNS Cancer; format: cell-based, human; conditions: SNB-19; for GI50 / CC50: Homo sapiens; for CC50: read-out: LC50 (the source's name)
U251 = test: NCI in vitro cancer screen, CNS Cancer; format: cell-based, human; conditions: U251; for GI50 / CC50: Homo sapiens, U-251; for CC50: read-out: LC50 (the source's name)
LOX IMVI = test: NCI in vitro cancer screen, Melanoma; format: cell-based, human; conditions: for GI50 / CC50: Homo sapiens; for CC50: read-out: LC50 (the source's name)
MALME-3M = test: NCI in vitro cancer screen, Melanoma; format: cell-based, human; conditions: for GI50 / CC50: Homo sapiens, Malme-3M; for CC50: read-out: LC50 (the source's name); for TGI: MALME-3M
MDA-MB-435 = test: NCI in vitro cancer screen, Melanoma; format: cell-based, human; conditions: MDA-MB-435; for GI50 / CC50: Homo sapiens; for CC50: read-out: LC50 (the source's name)
SK-MEL-28 = test: NCI in vitro cancer screen, Melanoma; format: cell-based, human; conditions: SK-MEL-28; for GI50 / LC50: Homo sapiens
UACC-257 = test: NCI in vitro cancer screen, Melanoma; format: cell-based, human; conditions: UACC-257; for GI50 / CC50: Homo sapiens; for CC50: read-out: LC50 (the source's name)
IGROV1 = test: NCI in vitro cancer screen, Ovarian Cancer; format: cell-based, human; conditions: IGROV1; for GI50 / CC50: Homo sapiens, IGROV-1; for CC50: read-out: LC50 (the source's name)
A498 = test: NCI in vitro cancer screen, Renal Cancer; format: cell-based, human; conditions: A498; for GI50 / CC50: Homo sapiens; for CC50: read-out: LC50 (the source's name)
CAKI-1 = test: NCI in vitro cancer screen, Renal Cancer; format: cell-based, human; conditions: CAKI-1; for GI50 / CC50: Homo sapiens; for CC50: read-out: LC50 (the source's name)
SN12C = test: NCI in vitro cancer screen, Renal Cancer; format: cell-based, human; conditions: for GI50 / CC50: Homo sapiens; for CC50: read-out: LC50 (the source's name)
TK-10 = test: NCI in vitro cancer screen, Renal Cancer; format: cell-based, human; conditions: TK-10; for GI50 / LC50: Homo sapiens
UO-31 = test: NCI in vitro cancer screen, Renal Cancer; format: cell-based, human; conditions: UO-31; for GI50 / CC50: Homo sapiens; for CC50: read-out: LC50 (the source's name)
PC-3 = test: NCI in vitro cancer screen, Prostate Cancer; format: cell-based, human; conditions: PC-3; for GI50 / CC50: Homo sapiens; for CC50: read-out: LC50 (the source's name)
MCF7 = test: NCI in vitro cancer screen, Breast Cancer; format: cell-based, human; conditions: MCF7; for GI50 / CC50: Homo sapiens; for CC50: read-out: LC50 (the source's name)
[1] = test system: MDA-MB-231 (MDA-MB-231/ATCC); test: NCI in vitro cancer screen, Breast Cancer; format: cell-based, human; conditions: MDA-MB-231; for GI50 / CC50: Homo sapiens; for CC50: read-out: LC50 (the source's name)
MDA-MB-468 = test: NCI in vitro cancer screen, Breast Cancer; format: cell-based, human; conditions: MDA-MB-468; for GI50 / CC50: Homo sapiens; for CC50: read-out: LC50 (the source's name)

COc1cc(/C=C/c2cc(O)cc(OCC=C(C)C)c2)ccc1O [USYDS2, (E)-3-(3-methyl-2-butenyloxy)-4′,5-dihydroxy-3′-methoxystilbene]
GI50 (MOLT-4): 4.16 µM
CC50 (MOLT-4): > 100 µM
TGI (MOLT-4): 28.3 µM
TGI (SR): >100 µM
GI50 (SR): 0.54 µM
CC50 (SR): > 100 µM
TGI (HOP-92): 21.1 µM
GI50 (HOP-92): 3.98 µM
CC50 (HOP-92): 60.1 µM
GI50 (NCI-H226): 5.43 µM
LC50 (50% lethal concentration) (NCI-H226): 46.4 µM
TGI (NCI-H226): 19.1 µM
GI50 (NCI-H23): 2.89 µM
LC50 (NCI-H23): > 100 µM
TGI (NCI-H23): 23.6 µM
GI50 (NCI-H460): 2.47 µM
CC50 (NCI-H460): 58.7 µM
TGI (NCI-H460): 10.9 µM
GI50 (NCI-H522): 1.14 µM
CC50 (NCI-H522): 14.7 µM
TGI (NCI-H522): 3.57 µM
GI50 (KM12): 2.09 µM
CC50 (KM12): 45 µM
TGI (KM12): 11.7 µM
GI50 (SW-620): 0.53 µM
CC50 (SW-620): 40.7 µM
TGI (SW-620): 14.0 µM
GI50 (SF-295): 3.94 µM
CC50 (SF-295): 49.2 µM
TGI (SF-295): 14.7 µM
GI50 (SF-539): 1.92 µM
CC50 (SF-539): 50.2 µM
TGI (SF-539): 13.8 µM
GI50 (SNB-19): 5.02 µM
CC50 (SNB-19): 53.6 µM
TGI (SNB-19): 20.4 µM
GI50 (U251): 2.96 µM
CC50 (U251): 41 µM
TGI (U251): 14.7 µM
TGI (LOX IMVI): 19.4 µM
GI50 (LOX IMVI): 1.56 µM
CC50 (LOX IMVI): > 100 µM
GI50 (MALME-3M): 1.88 µM
CC50 (MALME-3M): 94.9 µM
TGI (MALME-3M): 26.2 µM
GI50 (MDA-MB-435): 0.34 µM
CC50 (MDA-MB-435): 41.3 µM
TGI (MDA-MB-435): 11.0 µM
GI50 (SK-MEL-28): 5.04 µM
LC50 (SK-MEL-28): 46.7 µM
TGI (SK-MEL-28): 19.4 µM
GI50 (UACC-257): 7.89 µM
CC50 (UACC-257): 46 µM
TGI (UACC-257): 20.6 µM
GI50 (IGROV1): 5.84 µM
CC50 (IGROV1): > 100 µM
TGI (IGROV1): 46.7 µM
TGI (A498): 23.8 µM
GI50 (A498): 10.3 µM
CC50 (A498): 55.2 µM
TGI (CAKI-1): >100 µM
GI50 (CAKI-1): 6.13 µM
CC50 (CAKI-1): > 100 µM
TGI (SN12C): 18.8 µM
GI50 (SN12C): 4.02 µM
CC50 (SN12C): 60.2 µM
GI50 (TK-10): 4.69 µM
LC50 (TK-10): 40.1 µM
TGI (TK-10): 14.3 µM
GI50 (UO-31): 2.6 µM
CC50 (UO-31): 48.9 µM
TGI (UO-31): 16.9 µM
GI50 (PC-3): 3.84 µM
CC50 (PC-3): 65.8 µM
TGI (PC-3): 18.7 µM
GI50 (MCF7): 1.24 µM
CC50 (MCF7): 41 µM
TGI (MCF7): 15.0 µM
GI50 [1]: 0.25 µM
CC50 [1]: 15.7 µM
TGI [1]: 2.10 µM
GI50 (MDA-MB-468): 2.72 µM
CC50 (MDA-MB-468): 36.8 µM
TGI (MDA-MB-468): 9.41 µM

COc1cc(/C=C/c2cc(O)cc(OC)c2CC=C(C)C)ccc1O [USYDS1, (E)-2-(3-methyl-2-buten-1-yl)-4′,5-dihydroxy-3,3′-dimethoxystilbene]
GI50 (MOLT-4): 0.43 µM
CC50 (MOLT-4): 80.2 µM
TGI (MOLT-4): 12.3 µM
TGI (SR): 24.4 µM
GI50 (SR): 0.04 µM
CC50 (SR): > 100 µM
TGI (HOP-92): 12.3 µM
GI50 (HOP-92): 0.06 µM
CC50 (HOP-92): 39.6 µM
GI50 (NCI-H226): 3.13 µM
LC50 (50% lethal concentration) (NCI-H226): 45.6 µM
TGI (NCI-H226): 13.3 µM
GI50 (NCI-H23): 0.28 µM
LC50 (NCI-H23): 62.5 µM
TGI (NCI-H23): 15.1 µM
GI50 (NCI-H460): 0.23 µM
CC50 (NCI-H460): 42 µM
TGI (NCI-H460): 1.38 µM
GI50 (NCI-H522): 0.02 µM
CC50 (NCI-H522): 44.8 µM
GI50 (KM12): 0.32 µM
CC50 (KM12): 46.7 µM
TGI (KM12): 13.9 µM
GI50 (SW-620): 0.04 µM
CC50 (SW-620): 44.3 µM
TGI (SW-620): 15.1 µM
GI50 (SF-295): 0.65 µM
CC50 (SF-295): 55.7 µM
TGI (SF-295): 16.2 µM
GI50 (SF-539): 0.04 µM
CC50 (SF-539): 48.6 µM
TGI (SF-539): 14.4 µM
GI50 (SNB-19): 0.17 µM
CC50 (SNB-19): 51.5 µM
TGI (SNB-19): 19.3 µM
GI50 (U251): 0.37 µM
CC50 (U251): 36 µM
TGI (U251): 10.9 µM
TGI (LOX IMVI): 16.2 µM
GI50 (LOX IMVI): 0.05 µM
CC50 (LOX IMVI): 58.8 µM
GI50 (MALME-3M): 3.47 µM
CC50 (MALME-3M): 78.3 µM
TGI (MALME-3M): 25.8 µM
GI50 (MDA-MB-435): 0.03 µM
CC50 (MDA-MB-435): 43 µM
TGI (MDA-MB-435): 13.8 µM
GI50 (SK-MEL-28): 10.9 µM
LC50 (SK-MEL-28): 51.7 µM
TGI (SK-MEL-28): 23.8 µM
GI50 (UACC-257): 2.53 µM
CC50 (UACC-257): 45.4 µM
TGI (UACC-257): 17.7 µM
GI50 (IGROV1): 2.65 µM
CC50 (IGROV1): > 100 µM
TGI (IGROV1): 27.9 µM
TGI (A498): 8.45 µM
GI50 (A498): 1.84 µM
CC50 (A498): 32.2 µM
TGI (CAKI-1): 39.3 µM
GI50 (CAKI-1): 4.77 µM
CC50 (CAKI-1): > 100 µM
TGI (SN12C): 16.9 µM
GI50 (SN12C): 0.99 µM
CC50 (SN12C): 54.2 µM
GI50 (TK-10): 4.1 µM
LC50 (TK-10): 40.5 µM
TGI (TK-10): 15.7 µM
GI50 (UO-31): 0.25 µM
CC50 (UO-31): 51.3 µM
TGI (UO-31): 16.0 µM
GI50 (PC-3): 0.42 µM
CC50 (PC-3): 47.9 µM
TGI (PC-3): 16.1 µM
GI50 (MCF7): 0.23 µM
CC50 (MCF7): 52.9 µM
TGI (MCF7): 13.0 µM
GI50 [1]: 0.15 µM
CC50 [1]: 61.2 µM
TGI [1]: 2.43 µM
GI50 (MDA-MB-468): 0.36 µM
CC50 (MDA-MB-468): 33.2 µM
TGI (MDA-MB-468): 8.37 µM
